Data published in publication PMC12814168, “Fast, Bright, and Reversible Fluorescent Labeling of Rhodamine-Binding Proteins” (Journal of the American Chemical Society, 2025).

Assays:
Rho-tag = molecular target: T1, Rho-tag (Chlorobaculum tepidum, UniProt Q8KFZ1, A66M/D121K/D126E/E36V/E70D/F125Y/F62Y/G107D/G67E/H40T/K51V/M64F/N138A/Q25R/S152V/S33N/S65D/V17Q/V87I); experiment: Fluorescence intensity titration of SiR with serial Rho-tag dilutions, 50 mM HEPES, 50 mM NaCl, pH 7.3 with BSA, 25 °C.; assay type: binding; conditions: SD, n = 3
T1 construct: gene CT0179; His10-TEV, recombinant from E. coli
T1 sequence (Q8KFZ1 entry or part of it with the stated changes): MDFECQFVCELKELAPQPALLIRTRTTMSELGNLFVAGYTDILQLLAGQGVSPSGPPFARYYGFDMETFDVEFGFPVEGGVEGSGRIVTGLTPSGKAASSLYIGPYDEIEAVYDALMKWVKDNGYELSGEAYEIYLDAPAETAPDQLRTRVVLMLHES
Description: electroporation buffer, aliquoted (12 x 50 µL) on ice, and used immediately for electroporation with 1–5 µg DNA precipitated DNA. Cells were transferred to pre-chilled 0.2 cm gap electroporation cuvettes (Bio-Rad), and electroporated using a Gene Pulser Xcell (0.54 kV, 25 µF, infinite resistance, exponential decay). Cells were recovered in 2 mL YPDS at 30 °C, shaking for 1 h and afterwards expanded in 100 mL SDCAA at 30 °C for 2 days.
YSD protein expression, staining and sorting
regions were amplified via KOD PCR reaction using primers containing unique barcodes (NGS adaptor ligation oligos, Eurofins Genomics) analyzed by NGS sequencing (Illumina technology, Eurofins Genomics). The NGS results were analyzed using a custom-build pipeline as described previously. […] Alternatively, plasmid DNA was transformation into E.cloni 10G and single colonies were analyzed by Sanger sequencing (Eurofins). […]
and 1 (fully bound dye). The dissociation constants KD were determined by fitting a single-site […]

SiR-tag [1] = molecular target: T2, SiR-tag; experiment: Fluorescence intensity titration of 20 nM SiR with serial protein dilutions, 50 mM HEPES, 50 mM NaCl, pH 7.3 with BSA, 25 °C, 4 independent measurements.; assay type: binding; conditions: read-out: K D (SiR), SiR-tag; SD, n = 4
T2 construct: 2 + PROSS8 background combined with P57M/F58Y/R60L and G63N/F64K/D65N/M66H; His10-TEV
Description: 4 Bioluminescent Rho-tag and far-red SiR-tag. A) Schematic representation of direct excitation (left) or bioluminescence (BRET, right) of Rho-tag/TMR. B) AlphaFold2 (AF2) model of RhoLuc (N-Rho-tag^1‑64-GSG-cpNLuc^67/68-GS-Rho-tag^67‑158-C). cpNLuc^67/68 was inserted into the 64/67 site of Rho-tag. Tertiary structures are represented as colored cartoons and surface. The TMR ligand presented as yellow sticks. 3-Methoxyfurimazine (3MF) was modeled into the structure by aligning a crystal structure of NLuc (PDB-ID7SNT) to the AF model and is represented as blue sticks. pLDDT: 93.88. C) Bioluminescence profile of RhoLuc (dark blue, insertion), NLuc-Rho-tag (light blue, terminal fusion), or NLuc (gray). […] The fluorescence emission spectra were recorded upon the addition of Nano-Glo substrate (Promega 1:1000). BRET ratio (in brackets) is given as I 593/I 459. […] The fluorescence emission spectrum of 50 nM dye was recorded in the presence and absence of 20 μM protein. […]
SGCAA medium was used for induction and cells were grown at 30 °C, 250 rpm for 20 h. […] Samples were filtered through 5 mL round-bottom tubes with cell strainer caps (Falcon) and analyzed directly by FACS. […]
PMT voltages were set based on negative controls (no protein expression). Gates were applied for FSC, SSC, and fluorescence; signals >10³ (bilirubin or rhodamine dyes) were considered positive, background ≤10². […]

SiR-tag [2] = experiment: Fluorescence emission increase (FI/FI0) of SiR upon binding to SiR-tag; assay type: biochemical; conditions: 50 nM dye, with vs without 20 μM protein
Description: The thermal stability of Rho-tag variants was assessed using nano differential scanning fluorimetry (nanoDSF) on a Prometheus NT48 (NanoTemper Technologies). Protein samples (100 µM in activity buffer) were subjected to a thermal gradient from 20° C to 95° C at 1 °C / min.
The intrinsic fluorescence ratio (350 / 330 nm) of tryptophan / tyrosine residues was monitored, and the melting temperature (TM) was determined as the inflection point of this ratio curve. Each sample was analyzed in technical duplicate (N=2), and results are reported as mean ± standard […]
Fluorescence emission spectra
To evaluate fluorescence turn-on or quenching (F I/FI0), rhodamine dyes (2 – 50 nM) were incubated with or without excess Rho-tag (20 μM) in activity buffer containing 0.5% BSA (w/v).
Measurements were performed in black 384-well plates (Greiner) using the Spark20M microplate reader (Tecan) in technical replicates.
FI/FI0 was defined as the ratio of fluorescence intensity with protein to that without at the emission […]
recorded on the Spark20M microplate reader (Tecan). Following baseline correction, the absorbance was plotted against the dye concentration and the data were fitted linearly. […]
(§1) coefficients were calculated via the Lambert-Beer law (Equation 1).
Absolute quantum yields were determined at room temperature using a Hamamatsu Quantaurus-QY spectrometer (C11347 model). […]

[3] = Spectral properties: absolute quantum yield, extinction coefficient, brightness; assay type: physicochemical
Description: Serially fluorophore dilutions (0 – 3 μM) were prepared in activity buffer in presence or absence […]
Measurements were performed in 200 μL volumes in clear-bottom non-binding […]
recorded on the Spark20M microplate reader (Tecan). Following baseline correction, the absorbance was plotted against the dye concentration and the data were fitted linearly. Path […]
as §1
Absolute quantum yields were determined at room temperature using a Hamamatsu Quantaurus-QY spectrometer (C11347 model). Rhodamine dyes (1 μM) were tested with and without excess […]
Samples were prepared in 800 μL glass vials
Quantum yield represent as mean ± standard deviation from three technical replicates. The brightness was thereafter calculated using Equation 5. […]

[4] = with 20 µM Rho-tag (TMR, JF549) or SiR-tag (SiR, JF646)

CN(C)c1ccc2c(c1)[Si](C)(C)c1cc(N(C)C)ccc1C21OC(=O)c2ccccc21 [SiR, silicon rhodamine]
Kd (Rho-tag): 6.5 µM | Kd (SiR-tag [1]): 48 nM | Fluorescence increase FI/FI0 upon binding to SiR-tag (SiR-tag [2]): 13 fold | Absolute quantum yield Φ ([3]; HaloTag7-bound): 0.546 ± 0.018 | Brightness ε × Φ ([3]; HaloTag7-bound): 068 ± 1 M-1cm-1 × 103 | Extinction coefficient ε ([3]; HaloTag7-bound): 125 ± 15 M-1cm-1 × 103 | Brightness ε × Φ ([3]; buffer): 067 ± 2 M-1cm-1 × 103 | Extinction coefficient ε ([3]; buffer): 120 ± 22 M-1cm-1 × 103 | Absolute quantum yield Φ ([3]; buffer (unbound dye)): 0.562 ± 0.003 | Absolute quantum yield Φ [3, 4]: 0.649 ± 0.012 | Brightness ε × Φ [3, 4]: 105 ± 1 M-1cm-1 × 103 | Extinction coefficient ε [3, 4]: 162 ± 30 M-1cm-1 × 103
